± gives the standard deviation of the averaged measurements.
Legend:
Details in all cases: 72 h
[1] = tested on: HepG2; experiment: drug sensitivity score (DSS) for viability; higher = more toxic; extreme values may be limits of the assay
[2] = tested on: Caco-2; experiment: as above
[3] = tested on: U2OS; experiment: as above
[4] = tested on: Calu-3; experiment: as above
[5] = tested on: Vero E6; experiment: as above
[6] = tested on: HepG2; experiment: cell viability relative to DMSO; higher = less toxic
[7] = tested on: Caco-2; experiment: as above
[8] = tested on: U2OS; experiment: as above
[9] = tested on: Calu-3; experiment: as above
[10] = tested on: Vero E6; experiment: as above
[11] = tested on: HepG2; experiment: relative viability EC50 (midpoint between 100% and the lowest measured viability); higher = less toxic
[12] = tested on: Caco-2; experiment: as above
[13] = tested on: U2OS; experiment: as above
[14] = tested on: Calu-3; experiment: as above
[15] = tested on: Vero E6; experiment: as above

| SMILES | drug sensitivity score [1] | drug sensitivity score [2] | drug sensitivity score [3] | drug sensitivity score [4] | drug sensitivity score [5] | cell viability ([6]; 1 nM) [%] | cell viability ([6]; 10 nM) [%] | cell viability ([6]; 100 nM) [%] | cell viability ([6]; 1000 nM) [%] | cell viability ([6]; 10000 nM) [%] | cell viability ([7]; 1 nM) [%] | cell viability ([7]; 10 nM) [%] | cell viability ([7]; 100 nM) [%] | cell viability ([7]; 1000 nM) [%] | cell viability ([7]; 10000 nM) [%] | cell viability ([8]; 1 nM) [%] | cell viability ([8]; 10 nM) [%] | cell viability ([8]; 100 nM) [%] | cell viability ([8]; 1000 nM) [%] | cell viability ([8]; 10000 nM) [%] | cell viability ([9]; 1 nM) [%] | cell viability ([9]; 10 nM) [%] | cell viability ([9]; 100 nM) [%] | cell viability ([9]; 1000 nM) [%] | cell viability ([9]; 10000 nM) [%] | cell viability ([10]; 1 nM) [%] | cell viability ([10]; 10 nM) [%] | cell viability ([10]; 100 nM) [%] | cell viability ([10]; 1000 nM) [%] | cell viability ([10]; 10000 nM) [%] | relative viability EC50 [11] [µM] | relative viability EC50 [12] [µM] | relative viability EC50 [13] [µM] | relative viability EC50 [14] [µM] | relative viability EC50 [15] [µM] |
| --- | --- | --- | --- | --- | --- | --- | --- | --- | --- | --- | --- | --- | --- | --- | --- | --- | --- | --- | --- | --- | --- | --- | --- | --- | --- | --- | --- | --- | --- | --- | --- | --- | --- | --- | --- |
| CCO[C@@H]1OC(=O)C[C@@H]1NC(=O)[C@@H]1CCCN1C(=O)[C@@H](NC(=O)c1ccc(N)c(Cl)c1)C(C)(C)C [VX-765] | 0.9 | 0.3 | 0 | 0 | 0 | 95.5 | 103 | 88.4 | 88.3 | 92.2 | 97.7 | 104 | 117 | 98 | 86 | 98.2 | 104 | 94.7 | 100 | 98.8 | 111 | 93.8 | 90.5 | 95.5 | 98.6 | 98.8 | 102 | 95.2 | 93.9 | 100 | > 10 | > 10 | > 10 | > 10 | > 10 |
| NC(=O)c1ncn([C@@H]2O[C@H](CO)[C@@H](O)[C@H]2O)c1N [acadesine] | 0 | 0 | 0 | 0 | 0 | 98.1 | 96.1 | 105 | 97.9 | 102 | 96.7 | 98.1 | 86.4 | 92.7 | 95.7 | 100 | 91.8 | 96.5 | 97.9 | 102 | 96.6 | 94.9 | 84.2 | 97.8 | 90.8 | 101 | 98 | 100 | 94.4 | 97.2 | > 10 | > 10 | > 10 | > 10 | > 10 |
| CC(=O)NCCCS(=O)(=O)O [acamprosate] | 0 | 0 | 0 | 0 | 0 | 111 | 98.1 | 94.5 | 90.2 | 110 | 109 | 102 | 101 | 96.3 | 114 | 95.7 | 99.3 | 99.3 | 102 | 99.2 | 104 | 102 | 97.9 | 105 | 103 | 102 | 99.5 | 106 | 103 | 103 | > 10 | > 10 | > 10 | > 10 | > 10 |
| CCCCC(CC)CNC(=N)NC(=N)NCCCCCCNC(=N)NC(=N)NCC(CC)CCCC (stereo not given) [alexidine] | 11.2 | 5.4 | 6.8 | 0 | 3.1 | 106 | 93.2 | 105 | 50.7 | 6 | 94.6 | 99.3 | 105 | 101 | 1.2 | 93.6 | 91.8 | 99.3 | 91 | 3.9 | 97.1 | 105 | 104 | 103 | 105 | 108 | 106 | 93.3 | 109 | 32.8 | 0.964 | 3.22 | 2.39 | > 10 | 3.73 |
| C=CC[C@]1(O)CC[C@H]2[C@@H]3CCC4=CC(=O)CCC4=C3C=C[C@@]21C [altrenogest] | 0 | 0 | 0 | 0 | 0 | 107 | 95.9 | 93.6 | 90.2 | 101 | 102 | 98.1 | 99 | 107 | 96.5 | 92.7 | 97.2 | 96.1 | 97.7 | 104 | 107 | 88 | 97.6 | 99 | 105 | 97 | 97.5 | 93.2 | 89.5 | 104 | > 10 | > 10 | > 10 | > 10 | > 10 |
| NC[C@@H](O)CC(=O)O [aminohydroxybutyric-acid] | 0 | 0 | 0 | 0 | 0 | 102 | 91.7 | 108 | 97.2 | 104 | 92.1 | 91 | 86.2 | 103 | 105 | 93.6 | 99.7 | 96.4 | 106 | 102 | 98.4 | 103 | 97.7 | 95.1 | 104 | 98.6 | 91.9 | 93.3 | 92.4 | 102 | > 10 | > 10 | > 10 | > 10 | > 10 |
| COc1ccc(C2CNC(=O)NC2)cc1O[C@H]1C[C@@H]2CC[C@H]1C2 [atizoram] | 1 | 0 | 0 | 0 | 0.1 | 99 | 107 | 102 | 94.1 | 82.8 | 95.3 | 96.9 | 98.6 | 96.6 | 102 | 106 | 96.5 | 101 | 102 | 103 | 103 | 102 | 96.3 | 108 | 108 | 96.5 | 105 | 100 | 99.5 | 87.4 | > 10 | > 10 | > 10 | > 10 | > 10 |
| NCCc1cc[nH]n1 [betazole] | 0 | 0 | 0 | 0 | 0 | 100 | 106 | 92.9 | 98 | 125 | 89 | 91.4 | 84.3 | 92.6 | 107 | 102 | 99.5 | 105 | 102 | 108 | 97.2 | 102 | 97.2 | 101 | 109 | 94.4 | 104 | 92.8 | 106 | 106 | > 10 | > 10 | > 10 | > 10 | > 10 |
| COc1ccc(CCNCC(O)COc2cccc(C)c2)cc1OC (stereo not given) [bevantolol] | 0 | 0 | 0 | 0 | 0 | 90.1 | 87.2 | 99.7 | 89.8 | 92.1 | 94.3 | 111 | 103 | 90.3 | 104 | 101 | 95.9 | 101 | 101 | 99.8 | 107 | 103 | 102 | 113 | 96 | 98.5 | 95.8 | 94.7 | 90.1 | 98.7 | > 10 | > 10 | > 10 | > 10 | > 10 |
| Nc1c(CC(=O)O)cccc1C(=O)c1ccc(Br)cc1 [bromfenac] | 0 | 0 | 0 | 0 | 0 | 96.3 | 97.4 | 97.2 | 104 | 104 | 88.1 | 94.3 | 93.4 | 95.7 | 101 | 100 | 98.6 | 103 | 99.4 | 96 | 95.7 | 97 | 104 | 84.2 | 97.7 | 95.4 | 103 | 98.1 | 97.3 | 105 | > 10 | > 10 | > 10 | > 10 | > 10 |
| CCCCOC(=O)c1ccc(N)cc1 [butamben] | 0 | 0 | 0 | 0 | 0.7 | 104 | 93.6 | 124 | 112 | 124 | 108 | 94 | 95.6 | 90.9 | 97.5 | 98.7 | 96.5 | 102 | 94.9 | 103 | 98.6 | 96.7 | 94.2 | 93.7 | 94.1 | 94.2 | 102 | 96.3 | 92.8 | 82.3 | > 10 | > 10 | > 10 | > 10 | > 10 |
| CC[C@H](C)C[C@H](C)CCCCCCCCC(=O)N[C@H]1C[C@@H](O)[C@@H](NCCN)NC(=O)[C@@H]2[C@@H](O)CCN2C(=O)[C@H]([C@H](O)CCN)NC(=O)[C@H]([C@H](O)[C@@H](O)c2ccc(O)cc2)NC(=O)[C@@H]2C[C@@H](O)CN2C(=O)[C@H]([C@@H](C)O)NC1=O [caspofungin] | 0 | 1.35 ± 1.9 | 0 | 0.1 ± 0.14 | 0 | 91.8 | 106 | 110 | 116 | 103 | 88.2 ± 4.6 | 96.5 ± 3 | 115 ± 24 | 90.2 ± 18 | 95 ± 1.3 | 95.2 ± 2.2 | 95.6 ± 0.14 | 98 ± 1.3 | 98.2 ± 6.6 | 99 ± 1.6 | 104 ± 13 | 104 ± 14 | 104 ± 1.4 | 96.5 ± 5.9 | 89.5 ± 0.85 | 98.1 ± 1.8 | 99 ± 3.3 | 98.85 ± 0.64 | 95.1 ± 1.6 | 101 ± 7.1 | > 10 | > 10 | > 10 | > 10 | > 10 |
| CC1=C(C(=O)O)N2C(=O)[C@@H](NC(=O)[C@H](N)c3ccc(O)cc3)[C@H]2SC1 [cefadroxil] | 0 | 0 | 0 | 0 | 0 | 90.4 | 101 | 95.6 | 103 | 105 | 92.8 | 93.5 | 93.1 | 85.7 | 99.1 | 101 | 96.2 | 99.4 | 97 | 103 | 100 | 99.1 | 107 | 93.2 | 106 | 89.4 | 101 | 91.8 | 98.1 | 104 | > 10 | > 10 | > 10 | > 10 | > 10 |
| CO[C@@]1(NC(=O)Cc2cccs2)C(=O)N2C(C(=O)O)=C(COC(N)=O)CS[C@@H]21 [cefoxitin] | 0 | 0 | 0 | 0 | 0.5 | 113 | 91.4 | 98.1 | 97.4 | 97.4 | 90.1 | 95.5 | 102 | 101 | 97.8 | 95.6 | 99 | 96.3 | 102 | 105 | 106 | 94.4 | 106 | 104 | 110 | 104 | 95.7 | 100 | 96.8 | 85.5 | > 10 | > 10 | > 10 | > 10 | > 10 |

Source: the supplement of paper PMC13380429
